From publication PMC4256409, “Role of Phenylalanine and Valine^10 Residues in the Antimicrobial Activity and Cytotoxicity of Piscidin-1” (PLoS ONE, 2014)
Where no end group is shown, it is not given here.

Key:
[1] = test system: human red blood cells (hRBCs); assay: Hemolysis; format: cell-based
Description: The hemolytic ability of the peptides was tested using hRBCs. FreshhRBCs were washed three times with phosphate-buffered saline (PBS) (35 mM phosphate buffer containing 150 mM NaCl, pH 7.4), centrifuged for 10 min at 1000×g, and resuspended in PBS. The peptide solutions were then added to 50 µL of hRBCs in PBS to yield a final volume of 100 µL and a final erythrocyte concentration of 4% (v/v). The resulting suspension was incubated with agitation for 1 h at 37°C. The samples were centrifuged at 1000×g for 5 min. Hemoglobin release was monitored by measuring the absorbance of the supernatant at 405 nm. Controls for zero hemolysis (blank) and 100% hemolysis consisted of hRBCs suspended in PBS and 0.1% Triton-X 100, respectively. The percentage of hemolysis was calculated using the following equation: [drawing 1]

[2] = test system: NIH3T3 cells; assay: Cytotoxicity, MTT assay; format: cell-based, mouse; conditions: 1 d
Description: The mouse embryonic fibroblast-derived cell line NIH3T3 was purchased from the American Type Culture Collection (Manassas, VA). Cells were cultured in Dulbecco’s modified Eagle medium (DMEM) supplemented with 10% fetal bovine serum (FBS) and antibiotic solution (100 units/mL penicillin and 100 µg/mL streptomycin) at 37°C in a humidified 5% CO2 atmosphere. Cultures were passaged every 2–3 days by brief trypsin treatment and visualized with an inverted microscope. The cytotoxicity of peptides against mammalian cells was determined using a 3-(4,5-dimethylthiazol-2-yl)-2,5-diphynyltetrazolium bromide (MTT) assay. Cells were seeded on 96-well microplates at a density of 1×10^4 cells/well in 100 µL of DMEM containing 10% FBS and 1% antibiotics, and […]. Plates were incubated for 24 h at 37°C in 5% CO2. Serial 2-fold dilutions of peptide solutions (100 µL) in DMEM were added; wells containing cells without peptides served as controls. After incubating plates for 1 d, 20 µL of MTT solution (5 mg/mL) was added to each well, and the plates were incubated for an additional 4 h at 37°C. Precipitated MTT formazan was dissolved by adding 100 µL of dimethyl sulfoxide. Absorbance at 570 nm was measured using an enzyme-linked immunosorbent assay (ELISA) reader (Molecular Devices; Sunnyvale, CA). Cell survival, expressed as a percentage, was calculated as the ratio of A570 for cells treated with peptide to that of cells without peptide treatment.

FFHHIFRGIVHVGKTIHRLVTG [Pis-1, reference compound]
MHC (minimal peptide concentration that produced hemolysis) ([1]; pH 7.4): 1.6 µM | Hemolysis ([1]; peptide at its MIC, hRBCs): produced hemolysis even at its MIC | Survival rate of NIH3T3 cells ([2]; 6.25 µM peptide): 64% | Survival rate of NIH3T3 cells ([2]; 12.5 µM peptide): 49% | Survival rate of NIH3T3 cells ([2]; 25 µM peptide): 37% | Survival rate of NIH3T3 cells ([2]; 50 µM peptide): 11%
